The source of these data is ChEMBL document CHEMBL5131534, “Identification of 2-Pyridinylindole-Based Dual Antagonists of Toll-like Receptors 7 and 8 (TLR7/8)” (ACS Med Chem Lett, 2022).

One data set deals with T1, Toll-like receptor 7 (Homo sapiens, UniProt Q9NYK1).
T1 sequence (Q9NYK1 whole entry): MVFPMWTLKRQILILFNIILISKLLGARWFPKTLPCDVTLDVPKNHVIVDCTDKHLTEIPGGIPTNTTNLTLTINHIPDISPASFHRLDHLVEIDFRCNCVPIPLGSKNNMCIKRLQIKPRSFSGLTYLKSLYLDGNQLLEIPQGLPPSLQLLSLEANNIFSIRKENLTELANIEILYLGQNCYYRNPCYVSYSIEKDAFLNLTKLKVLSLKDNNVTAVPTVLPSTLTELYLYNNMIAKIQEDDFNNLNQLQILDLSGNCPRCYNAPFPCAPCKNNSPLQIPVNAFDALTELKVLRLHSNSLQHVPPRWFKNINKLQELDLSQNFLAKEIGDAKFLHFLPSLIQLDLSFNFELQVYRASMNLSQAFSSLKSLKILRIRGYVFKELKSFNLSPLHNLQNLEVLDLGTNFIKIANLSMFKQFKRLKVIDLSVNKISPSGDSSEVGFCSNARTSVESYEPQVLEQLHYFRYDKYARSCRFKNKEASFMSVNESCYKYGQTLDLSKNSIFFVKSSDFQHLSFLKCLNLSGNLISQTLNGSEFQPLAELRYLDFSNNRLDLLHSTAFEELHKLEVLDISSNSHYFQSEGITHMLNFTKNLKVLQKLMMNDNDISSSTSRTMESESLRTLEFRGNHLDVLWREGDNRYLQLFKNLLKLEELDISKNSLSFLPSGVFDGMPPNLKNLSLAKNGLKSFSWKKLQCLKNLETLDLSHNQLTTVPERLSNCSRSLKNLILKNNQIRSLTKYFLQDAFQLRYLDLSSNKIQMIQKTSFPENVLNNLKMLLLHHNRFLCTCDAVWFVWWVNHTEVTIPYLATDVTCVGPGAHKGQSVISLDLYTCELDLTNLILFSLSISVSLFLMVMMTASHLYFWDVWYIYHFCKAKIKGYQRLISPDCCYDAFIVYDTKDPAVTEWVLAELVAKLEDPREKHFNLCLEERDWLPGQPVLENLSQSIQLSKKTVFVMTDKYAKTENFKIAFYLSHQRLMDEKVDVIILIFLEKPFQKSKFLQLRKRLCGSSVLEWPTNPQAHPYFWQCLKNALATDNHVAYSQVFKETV
Description: Antagonist activity at gardiquimod stimulated human TRL7 overexpressed in HEK293 cells assessed as inhibition of NF kappa B/Ap-1 activation preincubated with compound for 30 mins followed by gardiquimod stimulation measured after 22 hrs by SEAP reporter assay. Type of data set: cell-based. For orientation: In a reporter assay the amount or activity of a reporter protein is the signal.

Data set [1] concerns Mus musculus. Description: Anti-inflammatory activity against MRL/Ipr Systemic lupus erythematosus mouse model assessed as inhibition of anti-Sm/RNP Ab titer at 10 mg/kg, po administered for 8 weeks and measured 24 hrs post final dose relative to control. More on the design: scale not given: the % may be the effect or the level left. The note with it: time 1368 hrs. Type of data set: functional.

Data set [2] has as its system Mus musculus. Description: Anti-inflammatory activity against MRL/Ipr Systemic lupus erythematosus mouse model assessed as inhibition of proteinuria at 10 mg/kg, po administered for 8 weeks and measured 24 hrs post final dose relative to control. More on the design: scale not given: the % may be the effect or the level left. To be noted: time 1368 hrs. Type of data set: functional.

For data set [3], the system named is Mus musculus. Description: Anti-inflammatory activity against MRL/Ipr Systemic lupus erythematosus mouse model assessed as inhibition of urinary NGAL at 10 mg/kg, po administered for 8 weeks and measured 24 hrs post final dose relative to control. In kind it is functional. On the set-up: scale not given: the % may be the effect or the level left. To be noted: time 1368 hrs.

Data set [4] can be described thus: Toxicity in MRL/Ipr Systemic lupus erythematosus mouse model assessed as change in body weight at 10 mg/kg, po administered for 8 weeks and measured 24 hrs post final dose. Type of data set: organism-based. The note with it: in vivo, 1368 h.
In data set [5] the test system is Mus musculus. The data set is described as follows: Anti-inflammatory activity against MRL/Ipr Systemic lupus erythematosus mouse model assessed as inhibition of anti-dsDNA Ab titer at 10 mg/kg, po administered for 8 weeks and measured 24 hrs post final dose relative to control. Type of data set: functional. More on the design: scale not given: the % may be the effect or the level left. The note with it: time 1368 hrs.

Data set [6] in a line: Toxicity in MRL/Ipr Systemic lupus erythematosus mouse model assessed as relative spleen weight at 10 mg/kg, po administered for 8 weeks and measured 24 hrs post final dose relative to control. Type of data set: organism-based. The note with it: in vivo, 1368 h.
The species named for a further data set is Homo sapiens. Description: Selectivity ratio of IC50 for human TLR9 to IC50 for human TLR7.
Another data set concerns the target T2, Toll-like receptor 8 (Homo sapiens, UniProt Q9NR97).
T2 sequence (Q9NR97 whole entry): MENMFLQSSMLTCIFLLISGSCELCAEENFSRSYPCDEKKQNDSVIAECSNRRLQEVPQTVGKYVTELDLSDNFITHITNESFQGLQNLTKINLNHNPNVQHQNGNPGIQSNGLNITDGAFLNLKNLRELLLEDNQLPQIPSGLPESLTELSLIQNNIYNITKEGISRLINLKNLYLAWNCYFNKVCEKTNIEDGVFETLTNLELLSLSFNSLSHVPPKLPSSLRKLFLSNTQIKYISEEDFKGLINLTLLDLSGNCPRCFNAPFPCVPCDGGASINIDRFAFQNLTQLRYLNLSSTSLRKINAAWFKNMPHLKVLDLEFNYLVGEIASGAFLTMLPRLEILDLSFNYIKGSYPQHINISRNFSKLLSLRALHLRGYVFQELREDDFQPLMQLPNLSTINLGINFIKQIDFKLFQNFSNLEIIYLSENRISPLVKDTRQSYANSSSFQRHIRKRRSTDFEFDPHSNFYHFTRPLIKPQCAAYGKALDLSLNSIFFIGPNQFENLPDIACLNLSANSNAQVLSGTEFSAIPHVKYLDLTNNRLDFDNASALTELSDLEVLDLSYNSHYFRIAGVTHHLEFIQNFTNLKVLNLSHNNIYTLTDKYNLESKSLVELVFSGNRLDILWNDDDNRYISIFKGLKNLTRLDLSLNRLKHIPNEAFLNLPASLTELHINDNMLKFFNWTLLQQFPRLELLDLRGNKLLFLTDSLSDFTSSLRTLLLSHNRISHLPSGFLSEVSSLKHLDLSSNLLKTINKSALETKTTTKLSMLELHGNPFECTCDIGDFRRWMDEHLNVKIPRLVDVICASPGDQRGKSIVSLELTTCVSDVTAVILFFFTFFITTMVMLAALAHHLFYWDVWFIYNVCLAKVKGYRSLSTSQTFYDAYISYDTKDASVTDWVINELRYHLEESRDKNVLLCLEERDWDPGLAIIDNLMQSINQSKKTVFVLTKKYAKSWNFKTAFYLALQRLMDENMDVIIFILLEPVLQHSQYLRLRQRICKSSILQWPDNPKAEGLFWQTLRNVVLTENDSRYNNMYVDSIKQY
Description: Antagonist activity at R848 stimulated human TRL8 overexpressed in HEK293 cells assessed as inhibition of NF kappa B/Ap-1 activation preincubated with compound for 30 mins followed by R848 stimulation measured after 22 hrs by SEAP reporter assay. In kind it is cell-based.

The IC50 is the concentration that inhibits the measured activity by half.

Each structure is given as a SMILES string. Where only a bound is given, the exact number is not on record here.

`CNCCN1CCC(c2ccc3[nH]c(-c4cccnc4)c(C)c3c2)CC1`: on Toll-like receptor 7, the IC50 was above 10000 nM. For the molecule `C[C@]12C=CC(=O)C=C1CC[C@@H]1[C@@H]2[C@@H](O)C[C@@]2(C)[C@H]1CC[C@]2(O)C(=O)CO` [PREDNISOLONE], the Activity in the data set with Mus musculus [1] is given as 79%; in the data set with Mus musculus [2], 77%; with Mus musculus [3], 74%; in data set [4], “Toxic”; in the data set on Mus musculus [5], 85%; in data set [6] it was 88%. Turning to `CCc1c(-c2ccnc(C)c2)[nH]c2c(F)cc(C3CCNCC3)cc12`, the Ratio IC50 in the data set listed under Homo sapiens was determined as 1.

On to `Cc1cc(-c2[nH]c3cc(F)c(C4CCNCC4)cc3c2C(C)C)ccn1`, for which the IC50 at Toll-like receptor 7 stood at 0.8 nM. Still for that read-out and setting: then `CCc1c(-c2ccnc(C)c2)[nH]c2ccc(C3CCNCC3)cc12`, with 24 nM; and `CCc1c(-c2ccnc(C)c2)[nH]c2cc(F)c(C3CCNCC3)c(F)c12`, with 13 nM. On to `Cc1nccc(-c2[nH]c3ccc(C4CCNCC4)cc3c2C(C)C)c1C`, for which the IC50 on Toll-like receptor 7 was determined as 28 nM. Moreover, in the data set listed under Homo sapiens, the Ratio IC50 was determined as 25. `Cc1cc(-c2[nH]c3ccc(C4CCNCC4)cc3c2C(C)C)cc(F)n1`: the Ratio IC50 in the data set filed under Homo sapiens was found to be 1050.

Take `Cc1cc(-c2[nH]c3ccc(C4CCNCC4)cc3c2C(C)C)ccn1`: the Ratio IC50 in the data set filed under Homo sapiens was 160.

With `COc1cc(-c2[nH]c3ccc(C4CCNCC4)cc3c2C(C)C)cc(C)n1`, the IC50 on Toll-like receptor 7 was 1.9 nM. The same measure, in the same setting: then `Cc1nc(C)c(C)c(-c2[nH]c3ccc(C4CCNCC4)cc3c2C(C)C)c1C`, with 300 nM.

Regarding `CC(C)c1c(-c2ccnc(CO)c2)[nH]c2ccc(C3CCNCC3)cc12`, the Ratio IC50 in the data set listed under Homo sapiens is 19.

For `CC(C)c1c(-c2ccncc2)[nH]c2ccc(C3CCNCC3)cc12`, the IC50 on Toll-like receptor 7 was found to be 29 nM. As for `Cc1cnccc1-c1[nH]c2ccc(C3CCNCC3)cc2c1C(C)C`, the Ratio IC50 in the data set listed under Homo sapiens was 91. For `CCc1cc(-c2[nH]c3ccc(C4CCNCC4)cc3c2C(C)C)cc(C)n1`, at Toll-like receptor 7, the IC50 came out at 57 nM.

`CNCCN1CCC(c2ccc3[nH]c(-c4ccc(OC)nc4)c(C)c3c2)CC1`: the IC50 on Toll-like receptor 7 is above 10000 nM. For `Cc1cc(-c2[nH]c3cc(C)c(C4CCNCC4)cc3c2C(C)C)ccn1`, the IC50 on Toll-like receptor 7 came to 8.2 nM.

On to `CC(C)c1c(-c2ccnc(C3CC3)c2)[nH]c2ccc(C3CCNCC3)cc12`, for which, at Toll-like receptor 7, the IC50 is 92 nM. Consider `Cc1cc(-c2[nH]c3ccc(C4CCNCC4)cc3c2C(C)C)c(C)cn1`, for which, in the data set filed under Homo sapiens, the Ratio IC50 was found to be 370. On to `Cc1cc(-c2[nH]c3ccc(C4CCNCC4)cc3c2C(C)C)cc(C2CC2)n1`, for which the IC50 at Toll-like receptor 7 was found to be 22 nM. For the molecule `CNCCN1CCC(c2ccc3[nH]c(-c4cncc(OC)c4)c(C)c3c2)CC1`, the IC50 at Toll-like receptor 7 is 3300 nM. On the same count and under the same terms, then `Cc1cc(-c2[nH]c3ccc(C4CCNCC4)c(F)c3c2C(C)C)cc(C)n1`, with 0.9 nM. On the same count and under the same terms, then `CNCCN1CCC(c2ccc3[nH]c(-c4cccc(OC)n4)c(C)c3c2)CC1`, with above 10000 nM. Same read-out and setting: then `CC(C)c1c(-c2ccncc2CO)[nH]c2ccc(C3CCNCC3)cc12`, with 200 nM. On to `Cc1cc(-c2[nH]c3cc(C(F)(F)F)c(C4CCNCC4)cc3c2C(C)C)ccn1`, for which the IC50 at Toll-like receptor 7 came out at 17 nM; at Toll-like receptor 8, 420 nM. For the same molecule, the Ratio IC50 in the data set filed under Homo sapiens stood at 77.

On to `COc1cc(-c2[nH]c3ccc(C4CCNCC4)cc3c2C(C)C)ccn1`, for which the IC50 at Toll-like receptor 7 was determined as 74 nM. As to `Cc1cc(-c2[nH]c3ccc(C4CCNCC4)cc3c2C(C)C)c(C)c(C)n1`, the Ratio IC50 in the data set filed under Homo sapiens was 130. For the molecule `CCc1c(-c2ccnc(C)c2)[nH]c2ccc(C3CCNCC3)c(C)c12`, the IC50 on Toll-like receptor 7 turned out to be 14 nM.
